{"source": "patent US20150040249A1", "about": "“Non-Human Animal Models of Depression and Methods of Use Thereof” (The Board of Trustees of the Leland Stanford Junior …, priority 2012, published 2015)", "origin": "cited, not measured here", "key": {"[1]": {"details": "rats; in vivo electrophysiological recordings"}, "NMDAR": {"system": "NMDAR", "details": "humans; acute"}}}
{"smiles": "CNCCCN1c2ccccc2CCc2ccccc21", "note": "[desipramine]", "values": [{"measurement": "reduced bursting activity in depression models", "setting": "[1]", "value": "restored"}]}
{"smiles": "CNC1(c2ccccc2Cl)CCCCC1=O", "note": "(centres unmarked) [ketamine]", "values": [{"measurement": "depression-like symptoms", "setting": "NMDAR", "value": "can acutely improve depression-like symptoms"}]}
